ChEMBL document CHEMBL3734723, “Synthesis and anticancer activity of 6-heteroarylcoumarins” (2015)

Experiments:
Assay type in all cases: functional
NCI-H522 = assay: Cytotoxicity against human NCI-H522 cells assessed as cell growth at 10 uM incubated for 48 hrs by sulforhodamine B assay; details: NCI-H522, 48 h, read-out: Activity
[1] = Cytotoxicity against human UO31 cells assessed as cell growth at 10 uM incubated for 48 hrs by sulforhodamine B assay; details: UO-31, 48 h, read-out: Activity
[2] = Cytotoxicity against human OVCAR8 cells assessed as cell growth at 10 uM incubated for 48 hrs by sulforhodamine B assay; details: OVCAR-8, 48 h, read-out: Activity
[3] = Cytotoxicity against human RPMI8226 cells assessed as cell growth at 10 uM incubated for 48 hrs by sulforhodamine B assay; details: RPMI-8226, 48 h, read-out: Activity
[4] = Cytotoxicity against human UACC62 cells assessed as cell growth at 10 uM incubated for 48 hrs by sulforhodamine B assay; details: UACC-62, 48 h, read-out: Activity
SK-MEL-5 = assay: Cytotoxicity against human SK-MEL-5 cells assessed as cell growth at 10 uM incubated for 48 hrs by sulforhodamine B assay; details: SK-MEL-5, 48 h, read-out: Activity
[5] = Cytotoxicity against human SF295 cells assessed as cell growth at 10 uM incubated for 48 hrs by sulforhodamine B assay; details: SF-295, 48 h, read-out: Activity
[6] = Cytotoxicity against human PC3 cells assessed as cell growth at 10 uM incubated for 48 hrs by sulforhodamine B assay; details: PC-3, 48 h, read-out: Activity
T47D = assay: Cytotoxicity against human T47D cells assessed as cell growth at 10 uM incubated for 48 hrs by sulforhodamine B assay; details: read-out: Activity
CCRF-CEM = assay: Cytotoxicity against human CCRF-CEM cells assessed as cell growth at 10 uM incubated for 48 hrs by sulforhodamine B assay; details: read-out: Activity
SR = assay: Cytotoxicity against human SR cells assessed as cell growth at 10 uM incubated for 48 hrs by sulforhodamine B assay; details: read-out: Activity
[7] = Cytotoxicity against human HL-60(TB) cells assessed as cell growth at 10 uM incubated for 48 hrs by sulforhodamine B assay; details: HL-60, 48 h, read-out: Activity
[8] = Cytotoxicity against human HOP92 cells assessed as cell growth at 10 uM incubated for 48 hrs by sulforhodamine B assay; details: HOP-92, 48 h, read-out: Activity
K562 = assay: Cytotoxicity against human K562 cells assessed as cell growth at 10 uM incubated for 48 hrs by sulforhodamine B assay; details: K562, 48 h, read-out: Activity
MDA-MB-468 = assay: Cytotoxicity against human MDA-MB-468 cells assessed as cell growth at 10 uM incubated for 48 hrs by sulforhodamine B assay; details: MDA-MB-468, 48 h, read-out: Activity
[9] = Cytotoxicity against human […] cells assessed as cell growth at 10 uM incubated for 48 hrs by sulforhodamine B assay; details: read-out: Activity
[10] = Cytotoxicity against human MOLT4 cells assessed as cell growth at 10 uM incubated for 48 hrs by sulforhodamine B assay; details: MOLT-4, 48 h, read-out: Activity
NCI-H460 = assay: Cytotoxicity against human NCI-H460 cells assessed as cell growth at 10 uM incubated for 48 hrs by sulforhodamine B assay; details: NCI-H460, 48 h, read-out: Activity
A549 = assay: Cytotoxicity against human A549 cells assessed as cell growth at 10 uM incubated for 48 hrs by sulforhodamine B assay; details: A549, 48 h, read-out: Activity
EKVX = assay: Cytotoxicity against human EKVX cells assessed as cell growth at 10 uM incubated for 48 hrs by sulforhodamine B assay; details: read-out: Activity
NCI-H23 = assay: Cytotoxicity against human NCI-H23 cells assessed as cell growth at 10 uM incubated for 48 hrs by sulforhodamine B assay; details: NCI-H23, 48 h, read-out: Activity
[11] = Cytotoxicity against human HCT116 cells assessed as cell growth at 10 uM incubated for 48 hrs by sulforhodamine B assay; details: HCT-116, 48 h, read-out: Activity
[12] = Cytotoxicity against human HCT15 cells assessed as cell growth at 10 uM incubated for 48 hrs by sulforhodamine B assay; details: HCT-15, 48 h, read-out: Activity
KM12 = assay: Cytotoxicity against human KM12 cells assessed as cell growth at 10 uM incubated for 48 hrs by sulforhodamine B assay; details: KM12, 48 h, read-out: Activity
[13] = Cytotoxicity against human LOXIMVI cells assessed as cell growth at 10 uM incubated for 48 hrs by sulforhodamine B assay; details: LOX IMVI, read-out: Activity
MDA-MB-435 = assay: Cytotoxicity against human MDA-MB-435 cells assessed as cell growth at 10 uM incubated for 48 hrs by sulforhodamine B assay; details: MDA-MB-435, 48 h, read-out: Activity
[14] = Cytotoxicity against human NCI-ADR-RES cells assessed as cell growth at 10 uM incubated for 48 hrs by sulforhodamine B assay; details: read-out: Activity
[15] = Cytotoxicity against human OVCAR4 cells assessed as cell growth at 10 uM incubated for 48 hrs by sulforhodamine B assay; details: OVCAR-4, 48 h, read-out: Activity
ACHN = assay: Cytotoxicity against human ACHN cells assessed as cell growth at 10 uM incubated for 48 hrs by sulforhodamine B assay; details: read-out: Activity
786-0 = assay: Cytotoxicity against human 786-0 cells assessed as cell growth at 10 uM incubated for 48 hrs by sulforhodamine B assay; details: 786-0, 48 h, read-out: Activity
MCF7 = assay: Cytotoxicity against human MCF7 cells assessed as cell growth at 10 uM incubated for 48 hrs by sulforhodamine B assay; details: MCF7, 48 h, read-out: Activity
[16] = Cytotoxicity against human HCC2998 cells assessed as cell growth at 10 uM incubated for 48 hrs by sulforhodamine B assay; details: HCC 2998, 48 h, read-out: Activity
[17] = Cytotoxicity against human OVCAR3 cells assessed as cell growth at 10 uM incubated for 48 hrs by sulforhodamine B assay; details: OVCAR-3, 48 h, read-out: Activity

Molecule `Cc1c(O)c(-c2ccnc(S)n2)cc2c3c(c(=O)oc12)CCCC3` has a growth at 10 µM (NCI-H522) of 68.8%, a growth at 10 µM [1] of 60.8% and a growth at 10 µM [2] of 64.5%.
Molecule `CCCc1cc(=O)oc2c(C)c(O)c(-c3ccc4c(=O)n(-c5ccccc5)nc-4[nH]3)cc12` has a growth at 10 µM [3] of 65.8%, a growth at 10 µM [4] of 60.6% and a growth at 10 µM (SK-MEL-5) of 67.1%. The growth at 10 µM [5] was 69.1%.
`Cc1c(O)c(-c2cc3ccccc3[nH]2)cc2c3c(c(=O)oc12)CCC3` gave a growth at 10 µM [3] of 51.8%, a growth at 10 µM (NCI-H522) of 61.6% and a growth at 10 µM [4] of 59.1%. For the same molecule, the growth at 10 µM [6] was 67% and the growth at 10 µM (T47D) was 69.8%.
With `CCCCc1cc(=O)oc2c(C)c(O)c(-c3ccnc(NC#N)n3)cc12` the growth at 10 µM (CCRF-CEM) was -58.3%.
Molecule `CCCCc1cc(=O)oc2c(C)c(O)c(-c3ccnc4nnnn34)cc12` has a growth at 10 µM [1] of 89.4%.
Molecule `Cc1c(O)c(-c2ccnc(N)n2)cc2c3c(c(=O)oc12)CCC3` has a growth at 10 µM [3] of 55.6%, a growth at 10 µM (SR) of 4.79% and a growth at 10 µM (CCRF-CEM) of -73.3%. The growth at 10 µM [7] was -34.4% and the growth at 10 µM [8] was -5.18%.
With `Cc1cc(=O)oc2c(C)c(O)c(-c3cc4ccccc4[nH]3)cc12` the growth at 10 µM [3] was 43.8%, the growth at 10 µM (K562) was 59.3% and the growth at 10 µM (SR) was 65.2%. For the same molecule, the growth at 10 µM (NCI-H522) was 58.2%, the growth at 10 µM [4] was 48.8% and the growth at 10 µM (SK-MEL-5) was 48.5%. The growth at 10 µM [1] was 51.8%, the growth at 10 µM [6] was 66.5% and the growth at 10 µM (MDA-MB-468) was 64.3%.
With `CCCc1cc(=O)oc2c(C)c(O)c(-c3ccc(C#N)c(=O)[nH]3)cc12` the growth at 10 µM [9] was 90%.
Work on `Cc1cc(=O)oc2c(C)c(O)c(-c3cc[nH]n3)cc12` yielded a growth at 10 µM [3] of 64.3%, a growth at 10 µM (CCRF-CEM) of -68.5% and a growth at 10 µM [7] of -10.9%.
Molecule `Cc1cc(=O)oc2c(C)c(O)c(-c3ccnc4nc5ccccc5n34)cc12` has a growth at 10 µM (CCRF-CEM) of -81.9%.
Work on `Cc1c(O)c(-c2cc[nH]n2)cc2c3c(c(=O)oc12)CCC3` yielded a growth at 10 µM (SR) of 16.5%, a growth at 10 µM [10] of -36% and a growth at 10 µM (CCRF-CEM) of -69.3%. It also gave a growth at 10 µM [7] of -20.4% and a growth at 10 µM [8] of 65.7%.
`Cc1c(O)c(-c2cc3ccccc3[nH]2)cc2c3c(c(=O)oc12)CCCC3` gave a growth at 10 µM [3] of 38.7%, a growth at 10 µM (K562) of 44.3% and a growth at 10 µM (SR) of 60.2%. It also gave a growth at 10 µM (NCI-H522) of 39.6%, a growth at 10 µM [4] of 48.2% and a growth at 10 µM (SK-MEL-5) of 52.2%. The growth at 10 µM [1] was 44%, the growth at 10 µM [6] was 52.8% and the growth at 10 µM (MDA-MB-468) was 41.6%. For the same molecule, the growth at 10 µM [10] was 62.2%, the growth at 10 µM (NCI-H460) was 47.8% and the growth at 10 µM (A549) was 58.5%. It also gave a growth at 10 µM (EKVX) of 60.7%, a growth at 10 µM [8] of 36.7% and a growth at 10 µM (NCI-H23) of 31.5%. It also gave a growth at 10 µM [11] of 51.7%, a growth at 10 µM [12] of 67.3% and a growth at 10 µM (KM12) of 64.8%. For the same molecule, the growth at 10 µM [5] was 65.7%, the growth at 10 µM [13] was 68.2% and the growth at 10 µM (MDA-MB-435) was 65.3%. It also gave a growth at 10 µM [14] of 49.2%, a growth at 10 µM [15] of 61.6% and a growth at 10 µM (ACHN) of 66.9%. The growth at 10 µM (786-0) was 69.9%, the growth at 10 µM (MCF7) was 67.3% and the growth at 10 µM [9] was 68.8%. The growth at 10 µM [16] was 53.7% and the growth at 10 µM [17] was 64.6%.
